# According to publication doi:10.1101/669069v1 (biorxiv, 2019):
# Biological target: T1, uMAT (MAT from U. urealiticum) (Ureaplasma urealyticum, UniProt A0ABM9XK24)
# T1 sequence (A0ABM9XK24 1-376): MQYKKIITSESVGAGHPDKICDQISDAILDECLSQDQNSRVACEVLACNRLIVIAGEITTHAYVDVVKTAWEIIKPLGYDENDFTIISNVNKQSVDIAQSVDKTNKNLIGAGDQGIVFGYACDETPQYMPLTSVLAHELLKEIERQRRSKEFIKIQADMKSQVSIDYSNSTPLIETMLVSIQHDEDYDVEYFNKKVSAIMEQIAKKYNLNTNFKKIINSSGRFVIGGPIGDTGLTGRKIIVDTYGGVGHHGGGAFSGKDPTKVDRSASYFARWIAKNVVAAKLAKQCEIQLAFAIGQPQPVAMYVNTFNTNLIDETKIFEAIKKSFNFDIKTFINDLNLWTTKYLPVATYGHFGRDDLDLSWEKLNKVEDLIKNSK
# Experiment: thermal shift, SYPRO-orange
# Format: binding
# Settings: read-out: dTm (first transition) at 1 mM
row,Structure (SMILES),ΔTm at 1000 µM
1,"C[S+](CC[C@H](N)C(=O)O)C[C@H]1O[C@@H](n2cnc3c(N)ncnc32)[C@H](O)[C@@H]1O (some centres unmarked) [SAM, S-adenosylmethionine]",> 10 °C
2,Nc1ncnc2c1ncn2[C@@H]1O[C@H](COP(=O)(O)OP(=O)(O)NP(=O)(O)O)[C@@H](O)[C@H]1O [AMPPNP],~2 °C
